Assays:
[1] = test system: skin removed from the back of a hairless mouse; experiment: Evaluation of skin penetrability, amount of γ-tocopherol in the skin; assay type: in vitro ADME; conditions: 4 hours at 37° C.; for amount of γ-tocopherol in the skin: 0.50 (mass %) in Dulbecco's MEM medium, HPLC, not added: 10
[2] = test system: skin removed from the back of a hairless mouse; experiment: Evaluation of skin penetrability, amount of α-tocopherol in the skin; assay type: in vitro ADME; conditions: 4 hours at 37° C.; for amount of α-tocopherol in the skin: 0.50 (mass %) in Dulbecco's MEM medium, HPLC, not added: 10
[3] = test system: keratinocytes of normal human epidermis; conditions: final concentration 1 mM, 37° C. for 2 hours; not added: lower than detection limit
Procedure: The cells were harvested and spalled by freeze-thawing method. To this cell spall solution, 1), 2) or 3) was added to have a final concentration of 1 mM. The resulting solution was kept at 37° C. for 2 hours and then the amount of α-tocopherol liberated in the reaction solution was measured.

| amount of γ-tocopherol in the skin [1] | amount of α-tocopherol in the skin [2] | amount of α-tocopherol liberated in the reaction solution [3] | change of the α-tocopherol amount in the treated skin ([2]; 0.50 in medium) | change of the γ-tocopherol amount in the treated skin ([1]; 0.50 in medium) | Structure (SMILES) |
| --- | --- | --- | --- | --- | --- |
| 11 nmol/g of skin |  |  |  |  | CC(=O)Oc1cc2c(c(C)c1C)OC(C)(CCCC(C)CCCC(C)CCCC(C)C)CC2 (stereo not shown) [γ-Tocopherol acetate, reference compound] |
|  | 11 nmol/g of skin | 0.5 nmol/ml of cell suspension |  |  | CC(=O)Oc1c(C)c(C)c2c(c1C)CCC(C)(CCC[C@H](C)CCC[C@H](C)CCCC(C)C)O2 (stereo partly drawn) [α-Tocopherol acetate, reference compound] |
|  | 24 nmol/g of skin |  | significant increase |  | Cc1c(C)c2c(c(C)c1OC(=O)CN)CCC(C)(CCCC(C)CCCC(C)CCCC(C)C)O2.Cl (stereo not shown) |
| 24 nmol/g of skin |  |  |  | significant increase | Cc1c(OC(=O)CN)cc2c(c1C)OC(C)(CCCC(C)CCCC(C)CCCC(C)C)CC2.Cl (stereo not shown) |
